Measurements taken from patent US20250375467A1, “SUSTAINED RELEASE SILICA HYDROGEL COMPOSITES FOR TREATING OPHTHALMOLOGICAL CONDITIONS AND METHODS OF USING SAME” (ASTELLAS US LLC, priority 2022, published 2025).

Parameters: species or system Dutch belted (DB) rabbit
Details: rabbit, in vivo
Procedure: The composite formulation (using formulation #11 CSTR-3) prepared as described in Examples 2 and 3, whose in vitro release profile is shown in FIG. 8A and FIG. 8B, was evaluated for ACP release and tissue exposure following IVT administration in the Dutch belted (DB) rabbit. The study design includes bilateral intravitreal dosing of 1.0 mg oligo equivalent in a 50 μL dosing volume of silica composite PK formulation. Two rabbits (4 eyes) were collected at each of the following time points, day 1, 3, 7, 14, 28, 42, 56, and 84. Eyes were dissected, and vitreous humor, retina, and retinal pigment epithelium (RPE)/choroid were collected for tissue specific bioanalytical analysis employing a qualified dual-hybridization assay. The ocular PK (pharmacokinetics) is summarized in FIG. 9 for liquid formulation administered as an IVT bolus dose for vitreous humor and retina tissues as comparator to the sustained release depot PK formulation. The ocular tissue PK for the PK formulation is provided as solid lines for vitreous humor (top line), retina (middle line) and RPE/choroid (bottom line).
At study termination (day 84), the remaining PK formulation depot was recovered from the vitreous humor by centrifugation and analyzed for remaining silica by microwave plasma atomic emission spectroscopy (MP-AES) method and avacincaptad pegol content by a qualified HPLC assay method. […]

- terminal half-life: 91.2 h
Substance: avacincaptad pegol [ACP]
